Key:
in vitro = details: human
Method: The human origin cell line HepG2 (ATCC, Mannassas, VA, USA) isolated from liver hepatocellular carcinoma was used to evaluate cytotoxicity of tested compounds. The cells were cultivated in Dublecco’s modified Eagle’s medium (DMEM; Biosera, Nuaille, France) supplemented with 10% fetal bovine serum (Biosera) and 1% penicillin-streptomycin antibiotic solution (Sigma-Aldrich, St. Louis, MO, USA), incubated at 37 °C in a CO2 incubator (Binder CO2 incubator BC 160, Tuttlingen, Germany) and routinely passaged by trypsinization at 75–85% confluence.
The final concentration of DMSO was less than 0.25% per well.
After 24-h incubation, the medium containing serially diluted substances was aspirated from each well and replaced by 100 µL of fresh medium containing MTT (0.5 mg/mL). Plates were subsequently incubated at 37 °C in CO2 incubator for 45 min. The medium containing MTT was then aspirated and formazan dissolved in 100 μL of DMSO. The optical density of each well was measured using Synergy 2 Multi-Mode Microplate Reader (BioTek Instruments, Inc., Winooski, VT, USA) at 570 nm. The cell viability was expressed as the percentage of untreated control. Each experiment was performed in triplicate and repeated three independent times.
The IC50 values were expressed as a mean ± standard error of the mean (SEM).

[1] = for Pe: PAMPA, PBS pH 7.4; for BBB permeation prediction in words: PAMPA-BBB; for CNS (+/−) predicted BBB permeation: class from Pe
Excerpt: An important feature for drugs targeting the brain is their ability to cross the BBB. The parallel artificial membrane permeability assay (PAMPA) is a high-throughput screening tool applicable for prediction of passive transport across BBB [57]. […] These include mainly (i) the different composition of the human phospholipid bilayer may cause deviation in predicted permeability, (ii) omitting the absorption of compounds that are actively transported by influx transporters and pumped-out by various efflux mechanisms with the glycoprotein P at the forefront or (iii) transport through the paracellular route which is mostly exploited by small […] molecules. Even considering these drawbacks, PAMPA-BBB is conceived as very simple but powerful tool for BBB prediction.
PAMPA (the parallel artificial membrane permeability assay) is a high-throughput screening tool applicable for prediction of the passive transport of potential drugs across the blood-brain barrier (BBB). In this study, it has been used as a non-cell-based in vitro assay carried out in a coated 96-well membrane filter. The filter membrane of the donor plate was coated with PBL (Polar Brain Lipid, Avanti, USA) in dodecane (4 µl of 20 mg/mL PBL in dodecane) and the acceptor well was filled with 300 µl of phosphate buffer saline, (PBS pH 7.4; VA). The tested compounds were dissolved first in DMSO and then diluted with PBS pH 7.4 to reach the final concentrations 50–500 µM in the donor well. […] In principle, test compound diffuse from the donor well through the polar brain lipid membrane (area = 0.28 cm^2) to the acceptor well. The concentration of the tested compound in both donor and the acceptor wells were assessed after 3, 4, 5 and 6 h of incubation in quadruplicate using the UV plate reader Synergy HT (Biotek, USA) at the maximum absorption wavelength of each compound (n = 3). Besides that, the solution of theoretical compound concentration, simulating the equilibrium state, established if the membrane was ideally permeable was prepared and assessed as well.

[2] = target: human BChE (hBChE), human plasmatic butyrylcholinesterase (Homo sapiens, UniProt P06276); test: hBChE inhibition, modified Ellman's method; format: biochemical
Method: Three series of tacrine-squaramide homodimers were tested for their inhibitory potential against human AChE (hAChE) and human BChE (hBChE) enzymes using modified spectrophotometric method of Ellman et al.. THA, 6-Cl-THA and 7-MEOTA were used as reference compounds.
(§1) Human plasmatic butyrylcholinesterase (BChE; EC 3.1.1.8) and recombinant acetylcholinesterase (AChE; 3.1.1.7) were prepared at the Department of Toxicology and Military Pharmacy. 5,5′-dithiobis(2-nitrobenzoic acid) (Ellman’s reagent, DTNB), phosphate buffer (PB, pH 7.4), acetylthiocholine (ATC) and butyrylthiocholine (BTC), were purchased from Sigma-Aldrich, Prague, Czech Republic. For measuring purposes – polystyrene Nunc 96-well microplates with flat bottom shape (ThermoFisher Scientific, USA) were utilized.
(§2) All the assays were carried out in 0.1 M KH2PO4/K2HPO4 buffer, pH 7.4. Enzyme solutions were prepared at 2.0 units/mL in 2 mL aliquots. The assay medium (100 µL) consisted of 40 µL of 0.1 M phosphate buffer (pH 7.4), 20 µL of 0.01 M DTNB, 10 µL of the enzyme, and 20 µL of 0.01 M substrate (ATC/BTC iodide solution).
(§3) Tested compounds were preincubated for 5 min. The reaction was started by immediate addition of 20 µL of the substrate. The activity was determined by measuring the increase in absorbance at 412 for AChE/BChE at 37 °C at 2 min intervals - using a Multi-mode microplate reader Synergy 2 (Winooski, VT, USA). Each concentration was assayed in triplicate. Software GraphPad Prizm 5 (San Diego, CA, USA) was used for the statistical data evaluation.

hBChE = hBChE (Homo sapiens, UniProt P06276); test: Kinetic study of BChE inhibition; format: biochemical
Method: (§4) Kinetic study was performed in order to describe the interactions of the compounds 4b and 3e with hAChE and hBChE, respectively. Inhibition kinetics were elucidated from velocity curves that were measured at several concentrations of the corresponding substrate (AChE—acetylthiocholine, BChE—butyrylthiocholine) and tested compounds. The type of enzyme inhibition and corresponding kinetic parameters (Ki and Ki’) were determined by nonlinear regression analysis. Results for each type model of inhibition (competitive, non-competitive, uncompetitive and mixed) were compared by sum-of-squares F-test. […].
(§5) The kinetic study of AChE and BChE was performed by using the above-mentioned modified Ellman’s method. The values of Vmax and Km of the Michaelis-Menten kinetics as well as the values of Ki and Ki’ were calculated by nonlinear regression from the substrate velocity curves. Linear regression was used for calculation of Lineweaver-Burk plots. All calculations were performed using GraphPad Prism software version 6.07 for Windows (San Diego, CA, USA).

[3] = target: T1, human AChE (hAChE), recombinant acetylcholinesterase (Homo sapiens, UniProt P22303); test: hAChE inhibition, modified Ellman's method; format: biochemical; details: for SI (selectivity index for hAChE): ratio IC50(hBChE)/IC50(hAChE)
T1 construct: made in house
Method: Three series of tacrine-squaramide homodimers were tested for their inhibitory potential against human AChE (hAChE) and human BChE (hBChE) enzymes using modified spectrophotometric method of Ellman et al.. THA, 6-Cl-THA and 7-MEOTA were used as reference compounds. […].
as §1, §2, §3

hAChE = target: T2, hAChE (Homo sapiens, UniProt P22303); test: Kinetic study of AChE inhibition; format: biochemical
T2 construct: made in house
Method: as §4, §5

[4] = nonlinear regression, sum-of-squares F-test, p < 0.05

T1 sequence (P22303 32-614): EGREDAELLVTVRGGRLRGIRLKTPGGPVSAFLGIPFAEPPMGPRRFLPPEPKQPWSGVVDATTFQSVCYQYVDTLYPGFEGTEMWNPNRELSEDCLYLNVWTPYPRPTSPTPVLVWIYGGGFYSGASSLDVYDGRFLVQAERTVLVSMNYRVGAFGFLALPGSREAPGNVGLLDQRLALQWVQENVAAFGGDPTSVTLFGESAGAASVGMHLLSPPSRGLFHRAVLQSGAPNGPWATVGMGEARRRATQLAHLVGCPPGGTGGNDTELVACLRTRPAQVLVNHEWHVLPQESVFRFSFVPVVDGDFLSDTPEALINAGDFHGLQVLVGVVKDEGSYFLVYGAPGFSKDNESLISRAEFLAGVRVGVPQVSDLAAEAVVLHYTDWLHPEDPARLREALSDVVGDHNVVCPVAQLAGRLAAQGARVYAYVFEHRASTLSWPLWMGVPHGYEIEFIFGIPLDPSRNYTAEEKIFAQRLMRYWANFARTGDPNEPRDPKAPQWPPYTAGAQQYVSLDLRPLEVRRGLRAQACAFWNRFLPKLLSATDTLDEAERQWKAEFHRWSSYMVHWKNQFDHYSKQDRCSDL
T2 sequence (P22303 32-614): as above
Sequence of hBChE (P06276 29-602): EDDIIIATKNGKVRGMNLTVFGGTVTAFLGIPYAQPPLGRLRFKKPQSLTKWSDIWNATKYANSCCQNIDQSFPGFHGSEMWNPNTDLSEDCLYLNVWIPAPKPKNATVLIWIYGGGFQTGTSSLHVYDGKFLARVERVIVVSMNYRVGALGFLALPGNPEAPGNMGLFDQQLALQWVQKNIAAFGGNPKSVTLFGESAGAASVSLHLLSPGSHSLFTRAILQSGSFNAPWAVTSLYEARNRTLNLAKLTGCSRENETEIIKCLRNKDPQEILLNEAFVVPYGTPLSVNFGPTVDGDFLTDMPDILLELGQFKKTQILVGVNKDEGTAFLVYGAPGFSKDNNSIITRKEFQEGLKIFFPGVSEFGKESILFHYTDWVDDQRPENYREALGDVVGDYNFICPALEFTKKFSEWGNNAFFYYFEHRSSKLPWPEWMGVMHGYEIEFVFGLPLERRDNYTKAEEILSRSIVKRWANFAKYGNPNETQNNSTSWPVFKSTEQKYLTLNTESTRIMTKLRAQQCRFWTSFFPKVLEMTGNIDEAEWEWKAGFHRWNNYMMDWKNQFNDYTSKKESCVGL
Sequence of human BChE (hBChE), human plasmatic butyrylcholinesterase (P06276 29-602): as above

O=c1c(NCCCCCCNc2c3c(nc4ccccc24)CCCC3)c(NCCCCCCNc2c3c(nc4ccccc24)CCCC3)c1=O [Compound 3e, Bis({6-[(1,2,3,4-tetrahydroacridin-9-yl)amino]hexyl}amino)cyclobut-3-ene-1,2-dione]
IC50 at 24 h (in vitro): 76000 nM
Pe [1]: 2.6 ×10⁻⁶ cm/s
BBB permeation prediction in words [1]: uncertain BBB permeation
CNS (+/−) predicted BBB permeation [1]: CNS +/− (CNS +/−: BBB permeation uncertain with Pe (10^−6 cm·s^−1) from 4.0 to 2.0)
IC50 [2]: 21 nM
Ki' (hBChE; binding to enzyme-substrate complex, substrate butyrylthiocholine): 100 ± 28 nM
Ki (hBChE; binding to free enzyme, substrate butyrylthiocholine): 8.1 ± 1.9 nM
type of inhibition (hBChE; [4]): mixed type of inhibition
IC50 [3]: 13 nM
SI (selectivity index for hAChE) [3]: 1.6

O=c1c(NCCCNc2c3c(nc4cc(Cl)ccc24)CCCC3)c(NCCCNc2c3c(nc4cc(Cl)ccc24)CCCC3)c1=O [Compound 4b, Bis({3-[(6-chloro-1,2,3,4-tetrahydroacridin-9-yl)amino]propyl}amino)cyclobut-3-ene-1,2-dione]
IC50 at 24 h (in vitro): > 64000 nM
Pe [1]: 2.5 ×10⁻⁶ cm/s
BBB permeation prediction in words [1]: uncertain BBB permeation
CNS (+/−) predicted BBB permeation [1]: CNS +/− (CNS +/−: BBB permeation uncertain with Pe (10^−6 cm·s^−1) from 4.0 to 2.0)
IC50 [2]: 110 nM
IC50 [3]: 2 nM
times less active than bis(7)-tacrine (hAChE) ([3]; IC50 comparison with bis(7)-tacrine): 2.5 times
SI (selectivity index for hAChE) [3]: 55
Ki' (hAChE; binding to enzyme-substrate complex, substrate acetylthiocholine): 0.5 ± 0.2 nM
Ki (hAChE; binding to free enzyme, substrate acetylthiocholine): 0.4 ± 0.2 nM
type of inhibition (hAChE; [4]): mixed type of inhibition

Source: article PMC6723352, “Exploring Structure-Activity Relationship in Tacrine-Squaramide Derivatives as Potent Cholinesterase Inhibitors” (Biomolecules, 2019)
